Data taken from patent US20220401564A1 (DANA-FARBER CANCER INSTITUTE, INC., priority 2019, published 2022).

Experiments:
Assay type in all cases: biochemical
[1] = biological target: T1, HDAC2 (Homo sapiens, UniProt Q92769); assay: HDAC enzymatic assay (Reaction Biology), fluorogenic substrate
T1 construct: purchased Reaction Biology
Experimental: (§1) Compounds 2 and 9 were tested in an enzymatic assay from Reaction Biology® against HDAC isoforms.
(§2) Base Reaction buffer: 50 mM Tris-HCl, pH8.0, 137 mM NaCl, 2.7 mM KCl, and 1 mM MgCl2. Add fresh: 1 mg/ml BSA, 1% DMSO
(§3) Fluorogenic HDAC General Substrate (HDAC1, HDAC2, HDAC3, HDAC6, HDAC10, and HDAC11): 50 μM, Arg-His-Lys-Lys(Ac)-AMC
(§4) 1. Delivered 2X enzyme in wells of reaction plate except in the control wells and added buffer to control wells. 2. Delivered compounds in 100% DMSO into the enzyme mixture by Acoustic technology (Echo550; nanoliter range). Spin down and pre-incubation. 3. Delivered 2X Substrate Mixture (Fluorogenic HDAC Substrate and co-factor if applicable) in all reaction wells to initiate the reaction. Spin and shake. 4. Incubated for 30 min for Class 2A, 1 h for HDAC1, 2, 3, and 6, and 2 h for the rest of HDAC isoforms and SIRTs at 30° C. with seal.
(§5) 5. Added Developer with Trichostatin A (or Nicotinamide for SIRTs) to stop the reaction and to generate fluorescent color. 6. The fluorescence that was generated was detected with excitation (Ex) at […] and emission (Em) at 460 nM by the EnVision Multilabel Plate Reader (PerkinElmer®, Santa Clara, Calif., USA).
(§6) IC50 values were derived from a 10-dose response curve. As shown in Tables 1-2, the addition of a linker and CRBN targeting group altered the isoform selectivity of the SAHA-based degrader compounds.

[2] = biological target: T2, HDAC1 (Homo sapiens, UniProt Q13547); assay: as above
T2 construct: purchased Reaction Biology
T2 sequence (Q13547 whole entry): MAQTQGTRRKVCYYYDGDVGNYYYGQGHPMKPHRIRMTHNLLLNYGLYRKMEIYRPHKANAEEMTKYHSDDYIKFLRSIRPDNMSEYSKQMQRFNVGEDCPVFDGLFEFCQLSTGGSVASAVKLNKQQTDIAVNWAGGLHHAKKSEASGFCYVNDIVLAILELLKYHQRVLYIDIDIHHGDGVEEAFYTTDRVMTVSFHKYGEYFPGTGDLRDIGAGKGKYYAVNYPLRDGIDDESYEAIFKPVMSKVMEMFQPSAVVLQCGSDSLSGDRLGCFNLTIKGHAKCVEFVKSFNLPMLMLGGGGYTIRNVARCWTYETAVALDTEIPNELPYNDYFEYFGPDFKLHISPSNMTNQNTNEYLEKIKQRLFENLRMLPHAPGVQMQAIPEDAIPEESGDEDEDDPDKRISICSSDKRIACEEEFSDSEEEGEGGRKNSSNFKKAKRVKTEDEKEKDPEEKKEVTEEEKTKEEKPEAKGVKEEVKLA
Experimental: as §1, §2, §3, §4, §5, §6

[3] = biological target: T3, HDAC7 (Homo sapiens, UniProt Q8WUI4); assay: HDAC enzymatic assay (Reaction Biology), Class 2A substrate; conditions: 10-dose response curve; read-out: Compound IC50 (M), HDAC7
T3 construct: purchased Reaction Biology
T3 sequence (Q8WUI4 1-952): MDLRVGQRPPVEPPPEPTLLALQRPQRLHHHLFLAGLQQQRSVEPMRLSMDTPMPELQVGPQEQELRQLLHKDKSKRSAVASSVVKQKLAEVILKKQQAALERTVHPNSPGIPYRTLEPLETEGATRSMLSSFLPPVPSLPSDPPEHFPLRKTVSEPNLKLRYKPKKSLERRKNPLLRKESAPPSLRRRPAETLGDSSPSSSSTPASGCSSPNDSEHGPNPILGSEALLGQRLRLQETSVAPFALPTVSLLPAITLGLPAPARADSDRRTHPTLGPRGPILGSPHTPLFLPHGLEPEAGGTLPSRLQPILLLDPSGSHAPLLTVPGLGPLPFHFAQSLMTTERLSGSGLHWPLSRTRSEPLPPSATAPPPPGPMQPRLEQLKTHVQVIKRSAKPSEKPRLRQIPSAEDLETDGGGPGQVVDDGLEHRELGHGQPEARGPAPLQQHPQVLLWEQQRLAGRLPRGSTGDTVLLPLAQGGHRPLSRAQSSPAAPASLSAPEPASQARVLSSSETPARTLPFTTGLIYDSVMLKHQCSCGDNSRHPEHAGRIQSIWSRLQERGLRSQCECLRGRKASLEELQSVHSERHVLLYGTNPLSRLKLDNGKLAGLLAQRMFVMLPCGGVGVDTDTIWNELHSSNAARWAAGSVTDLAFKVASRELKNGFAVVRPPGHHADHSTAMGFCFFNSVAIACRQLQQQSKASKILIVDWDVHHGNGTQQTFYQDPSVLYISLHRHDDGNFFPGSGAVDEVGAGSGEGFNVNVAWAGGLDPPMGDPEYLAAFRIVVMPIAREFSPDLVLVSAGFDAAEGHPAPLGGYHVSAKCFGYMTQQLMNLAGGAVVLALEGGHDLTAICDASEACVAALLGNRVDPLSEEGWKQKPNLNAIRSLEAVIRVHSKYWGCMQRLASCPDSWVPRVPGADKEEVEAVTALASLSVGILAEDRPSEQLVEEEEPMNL
Experimental: as §1, §2
(§7) Class 2A Substrate (HDAC4, HDAC5, HDAC7, and HDAC9): Boc-Lys(trifluoroacetyl)-AMC
as §4, §5, §6

[4] = biological target: T4, HDAC4 (Homo sapiens, UniProt P56524); assay: as above; conditions: 10-dose response curve; read-out: Compound IC50 (M), HDAC4
T4 construct: purchased Reaction Biology
T4 sequence (P56524 whole entry): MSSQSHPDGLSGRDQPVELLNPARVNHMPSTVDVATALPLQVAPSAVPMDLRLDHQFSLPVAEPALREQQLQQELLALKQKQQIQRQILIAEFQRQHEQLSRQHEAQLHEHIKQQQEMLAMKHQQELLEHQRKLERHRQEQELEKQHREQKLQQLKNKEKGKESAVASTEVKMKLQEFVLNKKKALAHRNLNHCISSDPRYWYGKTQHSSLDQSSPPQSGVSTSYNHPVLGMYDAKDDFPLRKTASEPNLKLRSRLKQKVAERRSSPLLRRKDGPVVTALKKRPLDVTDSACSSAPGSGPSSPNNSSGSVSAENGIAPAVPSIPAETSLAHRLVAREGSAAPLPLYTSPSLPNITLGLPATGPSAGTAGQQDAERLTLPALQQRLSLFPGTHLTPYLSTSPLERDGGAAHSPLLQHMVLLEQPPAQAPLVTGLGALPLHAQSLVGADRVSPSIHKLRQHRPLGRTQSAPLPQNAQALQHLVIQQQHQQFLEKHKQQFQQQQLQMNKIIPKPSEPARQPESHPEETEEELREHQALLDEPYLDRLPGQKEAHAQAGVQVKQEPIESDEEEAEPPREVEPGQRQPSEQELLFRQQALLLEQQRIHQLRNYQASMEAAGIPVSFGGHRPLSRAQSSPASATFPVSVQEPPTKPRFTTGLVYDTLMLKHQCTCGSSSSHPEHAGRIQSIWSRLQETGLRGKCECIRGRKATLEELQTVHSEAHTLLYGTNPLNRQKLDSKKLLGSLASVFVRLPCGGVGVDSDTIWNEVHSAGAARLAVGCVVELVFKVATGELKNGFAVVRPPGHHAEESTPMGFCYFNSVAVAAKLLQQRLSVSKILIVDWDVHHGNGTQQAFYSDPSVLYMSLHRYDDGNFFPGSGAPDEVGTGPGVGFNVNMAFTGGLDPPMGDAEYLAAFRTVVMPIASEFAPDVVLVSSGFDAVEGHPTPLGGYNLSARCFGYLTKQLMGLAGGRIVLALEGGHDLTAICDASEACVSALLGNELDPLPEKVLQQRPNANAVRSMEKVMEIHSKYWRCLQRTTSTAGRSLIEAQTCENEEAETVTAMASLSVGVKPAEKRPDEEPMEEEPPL
Experimental: as §1, §2, §7, §4, §5, §6

[5] = biological target: T5, HDAC5 (Homo sapiens, UniProt Q9UQL6); assay: as above; conditions: 10-dose response curve; read-out: Compound IC50 (M), HDAC5
T5 construct: purchased Reaction Biology
T5 sequence (Q9UQL6 whole entry): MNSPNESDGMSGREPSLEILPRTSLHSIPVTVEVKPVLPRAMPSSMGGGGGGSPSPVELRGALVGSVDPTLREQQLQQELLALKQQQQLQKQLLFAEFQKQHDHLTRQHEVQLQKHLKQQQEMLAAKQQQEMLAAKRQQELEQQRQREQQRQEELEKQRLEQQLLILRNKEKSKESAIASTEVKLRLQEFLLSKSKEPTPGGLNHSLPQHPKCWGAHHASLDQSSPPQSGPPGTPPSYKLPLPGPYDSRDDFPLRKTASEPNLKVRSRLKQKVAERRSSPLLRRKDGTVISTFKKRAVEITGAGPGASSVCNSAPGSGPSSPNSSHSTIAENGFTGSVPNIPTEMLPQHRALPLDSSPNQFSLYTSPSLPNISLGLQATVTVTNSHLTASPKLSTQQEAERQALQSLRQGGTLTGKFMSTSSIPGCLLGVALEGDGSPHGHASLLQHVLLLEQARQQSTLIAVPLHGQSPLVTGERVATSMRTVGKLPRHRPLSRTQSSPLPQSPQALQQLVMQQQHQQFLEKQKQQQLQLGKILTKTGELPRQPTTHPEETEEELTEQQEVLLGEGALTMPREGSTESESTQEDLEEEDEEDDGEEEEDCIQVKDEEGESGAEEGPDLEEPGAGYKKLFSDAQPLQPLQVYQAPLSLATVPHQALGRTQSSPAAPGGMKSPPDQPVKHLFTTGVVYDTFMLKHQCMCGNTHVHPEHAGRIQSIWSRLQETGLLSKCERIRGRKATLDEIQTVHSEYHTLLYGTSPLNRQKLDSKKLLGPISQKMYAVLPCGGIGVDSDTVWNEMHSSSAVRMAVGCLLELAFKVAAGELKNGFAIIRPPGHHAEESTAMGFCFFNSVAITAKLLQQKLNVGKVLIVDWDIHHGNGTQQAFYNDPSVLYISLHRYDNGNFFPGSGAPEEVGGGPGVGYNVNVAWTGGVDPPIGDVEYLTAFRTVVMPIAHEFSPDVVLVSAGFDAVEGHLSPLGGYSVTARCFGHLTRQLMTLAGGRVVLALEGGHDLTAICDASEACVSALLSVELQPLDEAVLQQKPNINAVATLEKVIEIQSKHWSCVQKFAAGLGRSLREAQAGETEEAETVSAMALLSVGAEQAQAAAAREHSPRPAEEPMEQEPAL
Experimental: as §1, §2, §7, §4, §5, §6

[6] = biological target: T6, HDAC9 (Homo sapiens, UniProt Q9UKV0); assay: as above; conditions: 10-dose response curve; read-out: Compound IC50 (M), HDAC9
T6 construct: purchased Reaction Biology
T6 sequence (Q9UKV0 whole entry): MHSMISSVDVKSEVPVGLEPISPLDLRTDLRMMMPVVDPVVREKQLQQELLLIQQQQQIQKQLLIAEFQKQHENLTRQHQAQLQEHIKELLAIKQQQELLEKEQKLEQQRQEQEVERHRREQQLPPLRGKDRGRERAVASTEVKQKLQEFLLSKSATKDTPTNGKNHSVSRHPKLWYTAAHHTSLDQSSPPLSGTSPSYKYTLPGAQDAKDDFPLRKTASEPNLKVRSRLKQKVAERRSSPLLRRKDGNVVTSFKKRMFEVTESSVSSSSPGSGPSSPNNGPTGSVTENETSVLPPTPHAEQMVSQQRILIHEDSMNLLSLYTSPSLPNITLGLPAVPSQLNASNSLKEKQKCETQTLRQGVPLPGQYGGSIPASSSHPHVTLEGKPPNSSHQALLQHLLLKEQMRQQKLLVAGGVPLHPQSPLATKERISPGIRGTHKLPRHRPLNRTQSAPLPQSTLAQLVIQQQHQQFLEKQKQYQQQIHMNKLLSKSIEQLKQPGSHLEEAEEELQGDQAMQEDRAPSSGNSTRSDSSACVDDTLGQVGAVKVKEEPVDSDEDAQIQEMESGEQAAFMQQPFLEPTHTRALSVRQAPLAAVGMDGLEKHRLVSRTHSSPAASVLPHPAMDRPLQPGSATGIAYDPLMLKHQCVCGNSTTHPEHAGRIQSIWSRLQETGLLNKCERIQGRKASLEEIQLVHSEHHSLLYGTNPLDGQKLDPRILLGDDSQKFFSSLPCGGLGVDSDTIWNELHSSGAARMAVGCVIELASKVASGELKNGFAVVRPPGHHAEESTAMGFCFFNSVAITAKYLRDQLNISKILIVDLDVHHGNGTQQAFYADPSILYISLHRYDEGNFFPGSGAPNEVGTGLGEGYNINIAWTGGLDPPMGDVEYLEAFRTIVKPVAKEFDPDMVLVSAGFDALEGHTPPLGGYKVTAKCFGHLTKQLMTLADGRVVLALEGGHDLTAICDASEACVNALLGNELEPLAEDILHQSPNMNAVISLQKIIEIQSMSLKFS
Experimental: as §1, §2, §7, §4, §5, §6

[7] = biological target: T7, HDAC8 (Homo sapiens, UniProt Q9BY41); assay: HDAC enzymatic assay (Reaction Biology), HDAC8 substrate; parameters: purchased Reaction Biology
T7 sequence (Q9BY41 1-377): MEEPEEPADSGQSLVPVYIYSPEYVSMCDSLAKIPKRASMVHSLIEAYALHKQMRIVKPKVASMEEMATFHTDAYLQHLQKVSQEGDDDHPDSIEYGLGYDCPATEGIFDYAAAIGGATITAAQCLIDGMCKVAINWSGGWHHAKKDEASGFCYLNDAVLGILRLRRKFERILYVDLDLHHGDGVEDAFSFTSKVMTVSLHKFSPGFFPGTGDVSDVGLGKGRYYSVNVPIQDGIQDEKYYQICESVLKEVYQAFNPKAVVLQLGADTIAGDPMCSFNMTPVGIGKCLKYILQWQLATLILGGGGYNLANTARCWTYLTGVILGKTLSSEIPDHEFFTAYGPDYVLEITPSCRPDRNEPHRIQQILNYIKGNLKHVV
Experimental: as §1, §2
(HDAC8 only substrate: 50 μM, Arg-His-Lys(Ac)-Lys(Ac))-AMC
as §4, §5, §6

T1 sequence (Q92769 whole entry): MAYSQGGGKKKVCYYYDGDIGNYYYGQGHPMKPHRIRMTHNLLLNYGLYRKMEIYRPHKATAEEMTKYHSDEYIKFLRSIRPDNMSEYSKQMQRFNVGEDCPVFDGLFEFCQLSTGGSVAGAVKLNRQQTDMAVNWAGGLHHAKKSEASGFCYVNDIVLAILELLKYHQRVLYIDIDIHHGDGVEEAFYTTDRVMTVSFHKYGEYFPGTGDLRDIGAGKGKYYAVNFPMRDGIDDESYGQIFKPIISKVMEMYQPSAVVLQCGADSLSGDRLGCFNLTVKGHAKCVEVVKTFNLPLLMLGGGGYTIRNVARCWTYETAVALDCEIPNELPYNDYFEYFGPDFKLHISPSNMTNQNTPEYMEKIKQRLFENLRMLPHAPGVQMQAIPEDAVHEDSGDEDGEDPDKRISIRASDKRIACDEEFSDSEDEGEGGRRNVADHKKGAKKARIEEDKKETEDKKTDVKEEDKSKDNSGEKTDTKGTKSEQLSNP

In the case of Cc1ncsc1-c1ccc([C@H](C)NC(=O)[C@@H]2C[C@@H](O)CN2C(=O)[C@@H](NC(=O)CCOCCOCCN(CCc2c[nH]c3ccccc23)Cc2ccc(/C=C/C(=O)NO)cc2)C(C)(C)C)cc1 [Compound 2, (2S,4R)-1-((S)-14-(tert-butyl)-3-(4-((E)-3-(hydroxyamino)-3-oxoprop-1-en-1-yl)benzyl)-1-(1H-indol-3-yl)-12-oxo-6,9-dioxa-3,13-diazapentadecan-15-oyl)-4-hydroxy-N—((S)-1-(4-(4-methylthiazol-5-yl)phenyl)ethyl)pyrrolidine-2-carboxamide], the “inhibition of HDAC2 deacetylase activity in vitro (in words)” value [1] is reported as “Moderate inhibition”, the IC50 ([1]; 10-dose response curve, read-out: Compound IC50 (M), HDAC2) is reported as 1.03e-06 M and the “inhibition of HDAC1 deacetylase activity in vitro (in words)” value [2] is reported as “Moderate inhibition”. The IC50 ([2]; 10-dose response curve, read-out: Compound IC50 (M), HDAC1) was 4.81e-07 M, the IC50 [3] was 1.71e-05 M and the IC50 [4] was 1.31e-05 M. For the same compound, the IC50 [5] was 2.69e-06 M, the IC50 [6] was over 2e-05 M and the “inhibition of HDAC8 deacetylase activity in vitro (in words)” value [7] was “Moderate inhibition”. It also gave an IC50 ([7]; 10-dose response curve, read-out: Compound IC50 (M), HDAC8) of 1.16e-06 M.
